Patent publication US7199128B2, “8-N-substituted-2H-isothiazolo[5,4-b]quinolizine-3,4-diones and related compounds as antiinfective agents” (Achillion Pharmaceuticals, Inc., priority 2005, dated 2007)
Converted amounts (≈) assume the structure as drawn. Where two headings read alike, the source gives them in different places.

Tests used:
S. aureus DNA gyrase = S. aureus DNA gyrase (Staphylococcus aureus, UniProt P0A0K8+P20831); assay: DNA gyrase supercoiling assay; assay type: biochemical
[1] = biological target: T1, S. aureus topoisomerase IV (Staphylococcus aureus, UniProt P0C1S7+P0C1U9); assay: Topoisomerase IV decatenation assay; assay type: biochemical
T1 construct: made in house; host or cells: E. coli
Protocol: Topoisomerase IV Activity
Enzyme activity is measured by a decatenation assay that monitors the ATP-dependent unlinking of DNA minicircles from kinetoplast DNA. Analysis is done by gel electrophoresis through 1% agarose/TBE gel. DNA is visualized with an Alpha Imager 2200 Analysis System and the IC50 determined by nonlinear regression analysis with Graphpad Prism software. S. aureus topoismerase IV enzyme subunits, grlA and grlB, are purified to homogeneity from over-expression plasmids in E. coli.

E. coli ATCC 25922 = assay: Minimum inhibitory concentration (MIC) assay, broth microdilution; assay type: cell-based; details: Escherichia coli, ATCC25922; against E. coli; visible growth after 18–24 h at 37° C.
Protocol: (§1) The antimicrobial activity of the compounds of the invention may be evaluated by a number of methods, including the following visual minimum inhibitory concentration (MIC) assay. This assay determines the minimum concentration of compound required to inhibit growth of a bacterial strain. Minimum Inhibitory Concentration (MIC) Assay Whole-cell antibacterial activity is determined by broth microdilution using conditions recommended by the National Committee for Clinical Laboratory Standards (NCCLS). […] Test compounds are dissolved in DMSO and diluted 1:50 in Mueller-Hinton II broth (Becton-Dickinson) to produce a 256 μg/ml stock solution. In a 96-well microtiter plate, the compound solution is serially two-fold diluted in Mueller-Hinton II broth. After the compounds are diluted, a 50 μl aliquot of the test organism (˜1×10^6 cfu/mL) is added to each well of the microtiter plate. The final test concentrations range from 0.125–128 μg/mL. Inoculated plates are incubated in ambient air at 37° C. for 18 to 24 hours. The organisms selected for testing included laboratory strains S. aureus ATCC 29213 and E. coli ATCC 25922 (strains purchased from American Type Culture Collection, Manassas, Va.). The minimum inhibitory concentration (MIC) was determined as the lowest concentration of compound that inhibited visible growth of the test organism.

S. aureus ATCC 29213 = assay: as above; assay type: cell-based; details: Staphylococcus aureus, ATCC29213; against S. aureus; visible growth after 18–24 h at 37° C.
Protocol: as §1

E. coli DNA gyrase = biological target: T2, E. coli DNA gyrase (Escherichia coli, UniProt P0AES4+P0AES6); assay: DNA gyrase supercoiling assay; assay type: biochemical; details: read-out: inhibition of E. coli DNA gyrase supercoiling IC50
T2 construct: made in house; host or cells: E. coli
Protocol: Enzyme activity is measured by a supercoiling assay that monitors the ATP-dependent conversion of relaxed pBR322 DNA to the supercoiled form. Analysis is done by gel electrophoresis through 1% agarose/TBE gel. DNA is visualized with an Alpha Imager 2200 Analysis System and the IC50 determined by nonlinear regression analysis with Graphpad Prism software. E. coli DNA gyrase enzyme subunits, gyrA and gyrB, are purified to homogeneity from over-expression constructs in E. coli.

[2] = Cell viability staining with Alamar Blue (cytotoxicity); assay type: cell-based; details: Chinese hamster, CHO (Chinese hamster ovary) cells, positive control
Protocol: (§2) Optimal cell density is first determined by plating cells in a 96-well plate standard sterile tissue culture plates in 100 μl media, 10%FBS at six cell densities from 500 cells/well to 15,000 cells/well. A cell free well containing only media is used as a control. Cells are incubated at 37° C. in a 5% CO2 incubator for 24 hours. 10% culture volume (10 microliters) of Alamar Blue (Biosource, DAL1100, 100 ml) is then added. Cells are incubated at 37° C. in a 5% CO2 incubator and read in a Victor V plate reader, 544 nm excitation, 590 nm emission, at 3, 4, and 24 hours after the addition of Alamar Blue. The cell number vs. change in fluorescence is plotted to determine linearity of signal vs. cell number. The optimal density varies between 500–15,000 cells/well depending on the specific cell type. The optimal density is selected based on the highest number of cells that is still in the linear response range. Determination of Compound Cytotoxicity Cells are plated at optimal cell density in a standard sterile tissue culture 96 well plate, and incubated at 37° C. O/N in a 5% CO2 incubator. 12 to 48 hours post-plating media is removed. […] Plates are incubated 4 hours at 37° C. in a 5% CO2 incubator and read in a Victor V plate reader, 544 nm excitation, 590 nm emission. […] The change in fluorescence vs. concentration of test compound is plotted to determine the cytotoxicity of the compound.

[3] = as above; assay type: cell-based; details: human, HEP 2 (laryngeal carcinoma) cells; HEP 2 cells, positive control
Protocol: as §2

T2 sequence (P0AES4 whole entry, one chain of several): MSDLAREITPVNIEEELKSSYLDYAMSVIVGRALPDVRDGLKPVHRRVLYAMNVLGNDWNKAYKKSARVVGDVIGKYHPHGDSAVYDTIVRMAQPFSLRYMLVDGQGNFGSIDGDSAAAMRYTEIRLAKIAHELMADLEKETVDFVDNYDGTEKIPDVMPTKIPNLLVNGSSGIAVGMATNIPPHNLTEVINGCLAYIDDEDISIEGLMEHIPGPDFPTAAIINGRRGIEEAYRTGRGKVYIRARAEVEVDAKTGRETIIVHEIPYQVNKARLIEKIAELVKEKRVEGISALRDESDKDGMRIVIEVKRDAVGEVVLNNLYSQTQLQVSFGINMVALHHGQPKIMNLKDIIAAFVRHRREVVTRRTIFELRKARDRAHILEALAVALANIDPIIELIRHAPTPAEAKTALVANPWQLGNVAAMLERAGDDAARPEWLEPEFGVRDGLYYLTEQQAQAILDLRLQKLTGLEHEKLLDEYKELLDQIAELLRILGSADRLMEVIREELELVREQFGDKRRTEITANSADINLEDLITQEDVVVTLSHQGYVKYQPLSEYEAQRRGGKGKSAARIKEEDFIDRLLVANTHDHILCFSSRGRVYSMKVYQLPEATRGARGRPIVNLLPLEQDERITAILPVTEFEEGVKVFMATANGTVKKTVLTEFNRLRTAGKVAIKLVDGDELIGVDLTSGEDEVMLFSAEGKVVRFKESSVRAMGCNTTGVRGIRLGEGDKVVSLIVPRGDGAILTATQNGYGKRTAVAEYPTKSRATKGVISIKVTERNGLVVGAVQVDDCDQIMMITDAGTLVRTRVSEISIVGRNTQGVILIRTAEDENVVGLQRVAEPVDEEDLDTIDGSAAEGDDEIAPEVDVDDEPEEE
S. aureus DNA gyrase, sequence (P20831 whole entry): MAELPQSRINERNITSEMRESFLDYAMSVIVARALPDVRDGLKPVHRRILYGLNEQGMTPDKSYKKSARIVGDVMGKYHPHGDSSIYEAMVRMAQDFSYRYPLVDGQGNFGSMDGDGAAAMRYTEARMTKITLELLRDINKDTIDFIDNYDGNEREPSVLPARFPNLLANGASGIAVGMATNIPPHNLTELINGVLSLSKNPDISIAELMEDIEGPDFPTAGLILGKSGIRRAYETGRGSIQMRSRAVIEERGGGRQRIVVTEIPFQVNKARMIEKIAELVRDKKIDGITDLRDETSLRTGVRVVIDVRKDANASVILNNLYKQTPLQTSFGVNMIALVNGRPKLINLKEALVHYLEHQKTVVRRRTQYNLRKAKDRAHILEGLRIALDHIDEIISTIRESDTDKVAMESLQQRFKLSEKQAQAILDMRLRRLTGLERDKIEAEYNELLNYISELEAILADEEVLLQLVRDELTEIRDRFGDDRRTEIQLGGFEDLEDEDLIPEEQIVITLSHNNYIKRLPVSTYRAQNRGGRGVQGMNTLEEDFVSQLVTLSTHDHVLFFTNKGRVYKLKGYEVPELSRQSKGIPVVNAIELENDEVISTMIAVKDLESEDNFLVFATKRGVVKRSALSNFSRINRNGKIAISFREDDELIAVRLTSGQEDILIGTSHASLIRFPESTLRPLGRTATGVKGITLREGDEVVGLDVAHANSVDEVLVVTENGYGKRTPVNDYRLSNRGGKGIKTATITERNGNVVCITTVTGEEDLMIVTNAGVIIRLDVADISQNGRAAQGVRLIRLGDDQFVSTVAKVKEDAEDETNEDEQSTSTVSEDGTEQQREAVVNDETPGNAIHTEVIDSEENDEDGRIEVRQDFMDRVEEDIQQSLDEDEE
S. aureus DNA gyrase, sequence (P0A0K8 whole entry): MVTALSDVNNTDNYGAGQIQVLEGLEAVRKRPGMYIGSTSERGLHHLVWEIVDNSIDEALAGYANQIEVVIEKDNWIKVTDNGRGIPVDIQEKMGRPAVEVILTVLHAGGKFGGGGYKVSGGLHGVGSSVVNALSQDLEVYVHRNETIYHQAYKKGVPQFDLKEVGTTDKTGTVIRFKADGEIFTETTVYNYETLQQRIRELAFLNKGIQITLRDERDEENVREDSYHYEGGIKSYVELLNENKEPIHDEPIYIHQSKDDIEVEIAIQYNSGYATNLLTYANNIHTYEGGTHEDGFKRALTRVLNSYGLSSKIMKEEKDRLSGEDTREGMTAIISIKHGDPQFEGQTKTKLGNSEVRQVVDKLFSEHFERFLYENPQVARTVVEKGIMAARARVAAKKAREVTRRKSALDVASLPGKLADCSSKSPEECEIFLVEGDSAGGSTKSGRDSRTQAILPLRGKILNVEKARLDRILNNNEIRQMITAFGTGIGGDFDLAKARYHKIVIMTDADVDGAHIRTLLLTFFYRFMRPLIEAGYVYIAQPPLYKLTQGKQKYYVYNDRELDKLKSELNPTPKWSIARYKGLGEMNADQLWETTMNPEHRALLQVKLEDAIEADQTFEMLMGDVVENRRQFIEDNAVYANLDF
T1 sequence (P0C1U9 whole entry): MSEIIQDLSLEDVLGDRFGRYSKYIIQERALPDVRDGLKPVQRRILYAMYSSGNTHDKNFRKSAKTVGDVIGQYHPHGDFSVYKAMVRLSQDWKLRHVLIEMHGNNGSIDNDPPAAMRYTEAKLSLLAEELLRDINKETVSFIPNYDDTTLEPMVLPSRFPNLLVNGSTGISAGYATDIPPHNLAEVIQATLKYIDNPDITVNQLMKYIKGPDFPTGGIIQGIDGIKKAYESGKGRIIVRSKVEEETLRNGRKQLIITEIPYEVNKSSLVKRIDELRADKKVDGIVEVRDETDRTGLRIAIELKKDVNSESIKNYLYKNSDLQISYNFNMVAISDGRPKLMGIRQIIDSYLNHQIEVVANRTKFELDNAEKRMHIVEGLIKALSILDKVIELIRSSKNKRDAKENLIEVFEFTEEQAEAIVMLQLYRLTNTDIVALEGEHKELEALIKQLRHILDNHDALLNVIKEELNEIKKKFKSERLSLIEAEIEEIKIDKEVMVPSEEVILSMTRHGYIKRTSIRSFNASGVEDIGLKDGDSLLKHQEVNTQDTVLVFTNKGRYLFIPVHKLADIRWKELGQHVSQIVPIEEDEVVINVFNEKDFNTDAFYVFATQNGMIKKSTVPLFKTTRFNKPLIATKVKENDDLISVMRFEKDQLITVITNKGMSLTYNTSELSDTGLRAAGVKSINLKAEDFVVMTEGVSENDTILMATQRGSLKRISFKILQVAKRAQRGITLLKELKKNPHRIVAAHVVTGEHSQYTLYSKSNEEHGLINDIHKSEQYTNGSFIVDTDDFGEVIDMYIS
T1 sequence (P0C1S7 whole entry): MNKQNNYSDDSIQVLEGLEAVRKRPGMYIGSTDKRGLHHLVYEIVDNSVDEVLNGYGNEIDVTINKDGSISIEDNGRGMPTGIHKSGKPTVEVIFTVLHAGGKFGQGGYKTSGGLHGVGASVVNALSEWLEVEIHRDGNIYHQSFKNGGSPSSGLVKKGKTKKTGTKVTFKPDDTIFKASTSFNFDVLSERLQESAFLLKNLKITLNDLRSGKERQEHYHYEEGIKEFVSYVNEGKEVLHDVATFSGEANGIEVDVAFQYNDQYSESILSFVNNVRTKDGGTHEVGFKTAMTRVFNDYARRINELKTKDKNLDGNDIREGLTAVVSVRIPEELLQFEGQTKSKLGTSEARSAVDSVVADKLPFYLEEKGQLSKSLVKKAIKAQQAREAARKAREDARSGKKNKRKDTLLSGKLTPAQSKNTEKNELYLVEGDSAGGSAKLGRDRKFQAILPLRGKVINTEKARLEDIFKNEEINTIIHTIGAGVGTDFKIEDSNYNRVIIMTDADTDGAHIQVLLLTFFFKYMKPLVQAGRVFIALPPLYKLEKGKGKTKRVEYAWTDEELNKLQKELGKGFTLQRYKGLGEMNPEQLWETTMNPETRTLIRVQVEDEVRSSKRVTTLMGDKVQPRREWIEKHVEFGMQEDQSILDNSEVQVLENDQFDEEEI

| Compound | IC50 (S. aureus DNA gyrase) [µM] | IC50 ([1]; read-out: inhibition of S. aureus topoisomerase IV activity IC50) [µM] | MIC (E. coli ATCC 25922) [µg/mL] | MIC (S. aureus ATCC 29213) [µg/mL] | IC50 (E. coli DNA gyrase) [µM] | CC50 [2] [µM] | CC50 [3] [µM] | IC50 [1] [µM] |
| --- | --- | --- | --- | --- | --- | --- | --- | --- |
| CCc1c2s[nH]c(=O)c2c(=O)n2ccc(N3CCNCC3)cc12 [Compound 8, 10-ethyl-8-(piperazin-1-yl)-2H-isothiazolo[5,4-b]quinolizine-3,4-dione] | > 200 | < 10 | 10 (≈ 30.3 µM) | 10 (≈ 30.3 µM) | < 1 |  |  |  |
| CC(C)(C)c1ccc(C(O)CCCN2CCC(C(O)(c3ccccc3)c3ccccc3)CC2)cc1 (stereo not drawn) [Terfenadine] |  |  |  |  |  | 4.3 to 6.5 | 3 to 5 |  |
| CCc1c2s[nH]c(=O)c2c(=O)n2ccc(N3CCC(N(C)C)C3)cc12 (racemic) [Compound 7, 8-(3-(dimethylamino)pyrrolidin-1-yl)-10-ethyl-2H-isothiazolo[5,4-b]quinolizine-3,4-dione] |  |  | 10 (≈ 27.9 µM) | 10 (≈ 27.9 µM) | < 1 |  |  | < 10 |
| O=c1[nH]sc2c(C3CC3)c3cc(N4CC(O)C4)c(F)cn3c(=O)c12 [Compound 9, 10-cyclopropyl-7-fluoro-8-(3-hydroxyazetidin-1-yl)-2H-isothiazolo[5,4-b]quinolizine-3,4-dione] | > 200 |  |  |  |  |  |  |  |
